{
  "source": "patent US20040152739A1",
  "about": "“Acyclic pyrazole compounds for the inhibition of mitogen activated protein kinase-activated protein kinase-2” (priority 2002, published 2004)",
  "note": "Structures can show the parent of a compound that is named as a salt.",
  "data": [
    {"molecular_target": "MK-2 (Homo sapiens, UniProt P49137)", "sequence (P49137 whole entry, species assumed)": "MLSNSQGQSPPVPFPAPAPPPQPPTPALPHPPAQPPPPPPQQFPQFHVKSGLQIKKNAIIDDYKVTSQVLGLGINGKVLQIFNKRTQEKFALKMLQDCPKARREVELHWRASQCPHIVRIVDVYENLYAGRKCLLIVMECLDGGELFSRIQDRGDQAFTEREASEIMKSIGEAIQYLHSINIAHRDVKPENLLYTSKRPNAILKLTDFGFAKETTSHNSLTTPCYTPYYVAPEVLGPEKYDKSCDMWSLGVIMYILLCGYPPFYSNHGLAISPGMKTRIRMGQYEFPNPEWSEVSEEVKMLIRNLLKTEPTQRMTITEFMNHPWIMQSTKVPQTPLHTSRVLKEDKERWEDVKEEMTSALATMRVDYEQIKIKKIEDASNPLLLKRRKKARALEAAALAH", "test": "Determination of MK-2 IC50 (anion exchange resin capture assay, HSP-peptide phosphorylation)", "type": "biochemical", "conditions": "read-out: MK-2 Avg. IC50", "units": {"IC50": "µM"}, "procedure": "The phosphorylation of HSP-peptide ([sequence]) by MAPKAPK2 was measured using an anion exchange resin capture assay method. […] The reaction was terminated and [γ^33P]ATP was removed from solution by the addition of 150 μl of AG 1×8 ion exchange resin in 900 mM sodium formate pH 3.0. A 50 μl aliquot of head volume was removed from the quenched reaction mixture and added to a 96-well plate, 150 μl of Microscint-40 (Packard) was added and the amount of phosphorylated-peptide was determined. Allow the Microscint to sit in the plates for 60 minutes prior to counting.\nCompounds are evaluated as potential inhibitors of the MK2 kinase by measuring their effects on MK2 phosphorylation of the peptide substrate. Compounds may be screened initially at two concentrations prior to determination of IC50 values. Screening results are expressed as percent inhibition at the concentrations of compound tested. For IC50 value determinations, compounds are tested at six concentrations in ten-fold serial dilutions with each concentration tested in triplicate. Results are expressed as IC50 values in micromolar. The assay is performed at a final concentration of 2% DMSO.\nCompounds are evaluated as potential inhibitors of the MK-2 kinase by measuring their effects on MK-2 phosphorylation of the peptide substrate. Compounds may be screened initially at two concentrations prior to determination of IC50 values. Screening results are expressed as percent inhibition at the concentrations of compound tested. For IC50 value determinations, compounds are tested at six concentrations in ten-fold serial dilutions with each concentration tested in triplicate. Results are expressed as IC50 values in micromolar. The assay is performed at a final concentration of 2% DMSO.", "values": [
      {"compound": "O=C1NCCCn2nc(-c3ccnc(-c4cnc5ccccc5c4)c3)cc21", "note": "[Example 39, trifluoroacetate]", "IC50": 0.577},
      {"compound": "O=C1NCCn2nc(-c3ccnc(-c4cccnc4)c3)cc21", "note": "[Example 41, dihydrochloride]", "IC50": 0.586},
      {"compound": "O=C1NCCn2nc(-c3ccnc(-c4ccc(O)cc4)c3)cc21", "note": "[Example 42, trifluoroacetate]", "IC50": 0.611},
      {"compound": "O=C1NCCn2nc(-c3ccnc(-c4ccc(OCCN5CCOCC5)cc4)c3)cc21", "note": "[Example 43, dihydrochloride]", "IC50": 0.63},
      {"compound": "O=C1NCCn2nc(-c3ccnc(-c4cccc(Cl)c4)c3)cc21", "note": "[Example 44, trifluoroacetate]", "IC50": 0.638},
      {"compound": "NCCn1nc(-c2ccncc2)cc1C(=O)O", "note": "[Example 45, trifluoroacetate]", "IC50": 0.735},
      {"compound": "CN(C)CCOc1ccc(-c2cc(-c3cc4n(n3)CCNC4=O)ccn2)cc1", "note": "[Example 46, trifluoroacetate]", "IC50": 0.766},
      {"compound": "CS(=O)(=O)c1ccc(-c2cc(-c3cc4n(n3)CCNC4=O)ccn2)cc1", "note": "[Example 48, dihydrochloride]", "IC50": 0.821},
      {"compound": "O=C1NCCn2nc(-c3ccnc(-c4ccc5c(c4)CCCN5)c3)cc21", "note": "[Example 49, dihydrochloride]", "IC50": 0.835},
      {"compound": "COc1ccc(-c2cc(-c3cc4n(n3)CCNC4=O)ccn2)cn1", "note": "[Example 50, trifluoroacetate]", "IC50": 0.866},
      {"compound": "Nc1ccc(-c2cc(-c3cc4n(n3)CCNC4=O)ccn2)cc1", "note": "[Example 52, hydrochloride]", "IC50": 0.914},
      {"compound": "O=Cc1c[nH]c2ccc(-c3cc(-c4cc5n(n4)CCNC5=O)ccn3)cc12", "note": "[Example 53, hydrochloride]", "IC50": 0.923},
      {"compound": "O=C1NCCn2nc(-c3ccnc(-c4ccc(CO)cc4)c3)cc21", "note": "[Example 54, trifluoroacetate]", "IC50": 0.929},
      {"compound": "O=C1NCCn2nc(-c3ccnc(-c4ccc5cc[nH]c5c4)c3)cc21", "note": "[Example 55, hydrochloride]", "IC50": 0.93},
      {"compound": "O=C1NCCn2nc(-c3ccnc(-c4ccc5sccc5c4)c3)cc21", "note": "[Example 56, trifluoroacetate]", "IC50": 0.965},
      {"compound": "NC(=O)C1Cn2nc(-c3ccnc(-c4cnc5ccccc5c4)c3)cc2C(=O)N1", "note": "(stereo not drawn) [Example 57, trifluoroacetate]", "IC50": 1.01},
      {"compound": "CCOC(=O)c1cc(-c2ccnc(-c3cnc4ccccc4c3)c2)nn1CCN", "note": "[Example 58, hydrochloride]", "IC50": 1.03},
      {"compound": "O=C1NCCn2nc(-c3ccnc(-c4ccc5c(c4)CCN5)c3)cc21", "note": "[Example 59, hydrochloride]", "IC50": 1.07},
      {"compound": "COc1ccc(-c2cc(-c3cc4n(n3)CCCNC4=O)ccn2)cc1", "note": "[Example 60]", "IC50": 1.09},
      {"compound": "O=C1NCCn2nc(-c3ccnc(-c4cccc(Cl)c4)c3)c(Cl)c21", "note": "[Example 61, 3-chloro-2-[2-(3-chlorophenyl)pyridin-4-yl]-6,7-dihydropyrazolo[1,5-a]pyrazin-4(5H)-one]", "IC50": 1.13},
      {"compound": "O=Cc1ccc(-c2cc(-c3cc4n(n3)CCNC4=O)ccn2)cc1", "note": "[Example 62, hydrochloride]", "IC50": 1.15},
      {"compound": "NCCCn1nc(-c2ccncc2)cc1C(=O)O", "note": "[Example 63]", "IC50": 1.16},
      {"compound": "O=C1NC(CCl)Cn2nc(-c3ccnc(-c4cnc5ccccc5c4)c3)cc21", "note": "(stereo not drawn) [Example 64]", "IC50": 1.17},
      {"compound": "O=C1NCCn2nc(-c3ccnc(-c4ccco4)c3)cc21", "note": "[Example 65]", "IC50": 1.2},
      {"compound": "O=C1NCCCn2nc(-c3ccnc(-c4cccc([N+](=O)[O-])c4)c3)cc21", "note": "[Example 66]", "IC50": 1.26},
      {"compound": "O=C1NCCn2nc(-c3ccnc(-c4nccs4)c3)cc21", "note": "[Example 67, trifluoroacetate]", "IC50": 1.29},
      {"compound": "Nc1cccc(-c2cc(-c3cc4n(n3)CCNC4=O)ccn2)c1", "note": "[Example 68]", "IC50": 1.3},
      {"compound": "NCCCn1nc(-c2ccnc(-c3cccc([N+](=O)[O-])c3)c2)cc1C(N)=O", "note": "[Example 69]", "IC50": 1.32},
      {"compound": "O=C1NCCn2nc(-c3ccnc(-n4ccnc4)c3)cc21", "note": "[Example 70, hydrochloride]", "IC50": 1.36},
      {"compound": "O=C1NCCCn2nc(-c3ccnc(-c4ccc(O)cc4)c3)cc21", "note": "[Example 71, hydrochloride]", "IC50": 1.37},
      {"compound": "O=C1NCCn2nc(-c3ccnc(-c4cccc(Cl)c4)c3)c(Br)c21", "note": "[Example 72, hydrochloride]", "IC50": 1.39},
      {"compound": "O=C1NCCn2nc(-c3ccnc(-c4ccoc4)c3)cc21", "note": "[Example 73, hydrochloride]", "IC50": 1.46},
      {"compound": "CN(C)c1ccc(-c2cc(-c3cc4n(n3)CCNC4=O)ccn2)cc1", "note": "[Example 74, hydrochloride]", "IC50": 1.53},
      {"compound": "O=C1NCCn2nc(-c3ccnc(-c4ccsc4)c3)cc21", "note": "[Example 75]", "IC50": 1.55},
      {"compound": "O=C1NCCn2nc(-c3ccnc(-c4ccc5c(c4)OCCO5)c3)cc21", "note": "[Example 76, trifluoroacetate]", "IC50": 1.56},
      {"compound": "COc1cncc(-c2cc(-c3cc4n(n3)CCNC4=O)ccn2)c1", "note": "[Example 77, trifluoroacetate]", "IC50": 1.69},
      {"compound": "CC(C)NCc1ccc(-c2cc(-c3cc4n(n3)CCNC4=O)ccn2)cc1", "note": "[Example 78]", "IC50": 1.73},
      {"compound": "O=C1NCCCn2nc(-c3ccnc(-c4ccc(CO)cc4)c3)cc21", "note": "[Example 79, 2-{2-[4-(hydroxymethyl)phenyl]pyridin-4-yl}-5,6,7,8-tetrahydro-4H-pyrazolo[1,5-a][1,4]diazepin-4-one]", "IC50": 1.75},
      {"compound": "CN(C)CCc1ccc(-c2cc(-c3cc4n(n3)CCNC4=O)ccn2)cc1", "note": "[Example 80, hydrochloride]", "IC50": 1.98},
      {"compound": "O=C1NCCn2nc(-c3ccnc(-c4cncnc4)c3)cc21", "note": "[Example 81, hydrochloride]", "IC50": 1.99},
      {"compound": "O=C1NCCn2nc(-c3ccnc(-c4ccc5c(c4)CNCC5)c3)cc21", "note": "[Example 82, trifluoroacetate]", "IC50": 2.08},
      {"compound": "CS(=O)(=O)c1cccc(-c2cc(-c3cc4n(n3)CCNC4=O)ccn2)c1", "note": "[Example 83, trifluoroacetate]", "IC50": 2.1},
      {"compound": "O=C1NCCn2nc(-c3ccnc(-c4cccc(OCCN5CCNCC5)c4)c3)cc21", "note": "[Example 84]", "IC50": 2.13},
      {"compound": "CS(=O)(=O)Nc1cccc(-c2cc(-c3cc4n(n3)CCNC4=O)ccn2)c1", "note": "[Example 85, dihydrochloride]", "IC50": 2.29},
      {"compound": "CN(C)c1ncnc2ccc(-c3cc(-c4cc5n(n4)CCNC5=O)ccn3)cc12", "note": "[Example 86]", "IC50": 2.4},
      {"compound": "CN(C)CCOc1cccc(-c2cc(-c3cc4n(n3)CCNC4=O)ccn2)c1", "note": "[Example 87]", "IC50": 2.4},
      {"compound": "O=C1NCCn2nc(-c3ccncc3)cc21", "note": "[Example 88]", "IC50": 2.6},
      {"compound": "O=C1NCCn2nc(-c3ccnc(-c4ccc(F)cc4F)c3)cc21", "note": "[Example 89, dihydrochloride]", "IC50": 2.62},
      {"compound": "Cc1cn(-c2cc(-c3cc4n(n3)CCCNC4=O)ccn2)cn1", "note": "[Example 90]", "IC50": 2.76},
      {"compound": "O=C1NCCn2nc(-c3ccnc(-c4ccc[nH]4)c3)cc21", "note": "[Example 91, dihydrochloride]", "IC50": 2.79},
      {"compound": "Cc1cc2cc(-c3cc(-c4cc5n(n4)CCNC5=O)ccn3)ccc2[nH]1", "note": "[Example 92]", "IC50": 2.83},
      {"compound": "O=C1NCCn2nc(-c3ccnc(-c4ccccc4F)c3)cc21", "note": "[Example 93]", "IC50": 2.95},
      {"compound": "O=C1NCCn2nc(-c3ccnc(-c4ccc(CN5CCOCC5)cc4)c3)cc21", "note": "[Example 94, bis(trifluoroacetate)]", "IC50": 2.99},
      {"compound": "CCOC(=O)N1CCN(CCOc2cccc(-c3cc(-c4cc5n(n4)CCNC5=O)ccn3)c2)CC1", "note": "[Example 95, trifluoroacetate]", "IC50": 3.02},
      {"compound": "CCOC(=O)c1cc(-c2ccnc(-c3ccc(CO)cc3)c2)nn1CCN", "note": "[Example 96, trifluoroacetate]", "IC50": 3.25},
      {"compound": "NCc1cccc(-c2cc(-c3cc4n(n3)CCNC4=O)ccn2)c1", "note": "[Example 97, trifluoroacetate]", "IC50": 3.25},
      {"compound": "O=C1NCCn2nc(-c3ccnc(-c4cccc(OCCN5CCCC5)c4)c3)cc21", "note": "[Example 98, 2-{2-[3-(2-pyrrolidin-1-ylethoxy)phenyl]pyridin-4-yl}-6,7-dihydropyrazolo[1,5-a]pyrazin-4(5H)-one]", "IC50": 3.27},
      {"compound": "CC(=O)Nc1cccc(-c2cc(-c3cc4n(n3)CCNC4=O)ccn2)c1", "note": "[Example 99, N-{3-[4-(4-oxo-4,5,6,7-tetrahydropyrazolo[1,5-a]pyrazin-2-yl)pyridin-2-yl]phenyl}acetamide]", "IC50": 3.31},
      {"compound": "CN(C)c1ccc(-c2cc(-c3cc4n(n3)CCCNC4=O)ccn2)cc1", "note": "[Example 100, 2-{2-[4-(dimethylamino)phenyl]pyridin-4-yl}-5,6,7,8-tetrahydro-4H-pyrazolo[1,5-a][1,4]diazepin-4-one trifluoroacetate]", "IC50": 3.44},
      {"compound": "O=C1NCCn2nc(-c3ccnc(-c4ccc(C(=O)N5CCOCC5)cc4)c3)cc21", "note": "[Example 101, 2-{2-[4-(morpholin-4-ylcarbonyl)phenyl]pyridin-4-yl}-6,7-dihydropyrazolo[1,5-a]pyrazin-4(5H)-one]", "IC50": 3.65},
      {"compound": "O=C(O)CCc1ccc(-c2cc(-c3cc4n(n3)CCNC4=O)ccn2)cc1", "note": "[Example 102, 3-{4-[4-(4-oxo-4,5,6,7-tetrahydropyrazolo[1,5-a]pyrazin-2-yl)pyridin-2-yl]phenyl}propanoic acid]", "IC50": 4.19},
      {"compound": "O=C1NCCn2nc(-c3ccnc(-n4cccn4)c3)cc21", "note": "[Example 103, 2-[2-(1H-pyrazol-1-yl)pyridin-4-yl]-6,7-dihydropyrazolo[1,5-a]pyrazin-4(5H)-one]", "IC50": 4.2},
      {"compound": "O=C1NCCn2nc(-c3ccnc(-c4nc5ccccc5s4)c3)cc21", "note": "[Example 104, 2-[2-(1,3-benzothiazol-2-yl)pyndin-4-yl]-6,7-dihydropyrazolo[1,5-a]pyrazin-4(5H)-one]", "IC50": 4.27},
      {"compound": "O=C1NCCCn2nc(-c3ccnc(-n4cnc(-c5ccccc5)c4)c3)cc21", "note": "[Example 105, 2-[2-(4-phenyl-1H-imidazol-1-yl)pyridin-4-yl]-5,6,7,8-tetrahydro-4H-pyrazolo[1,5-a][1,4]diazepin-4-one trifluoroacetate]", "IC50": 4.31},
      {"compound": "O=C1NCCCn2nc(-c3ccnc(-c4cccc(CO)c4)c3)cc21", "note": "[Example 106, 2-{2-[3-(hydroxymethyl)phenyl]pyridin-4-yl}-5,6,7,8-tetrahydro-4H-pyrazolo[1,5-a][1,4]diazepin-4-one trifluoroacetate]", "IC50": 4.54},
      {"compound": "O=C1NC(CO)Cn2nc(-c3ccnc(C4CNc5ccccc5C4)c3)cc21", "note": "(stereo not drawn) [Example 107, 6-(hydroxymethyl)-2-[2-(1,2,3,4-tetrahydroquinolin-3-yl)pyridin-4-yl]-6,7-dihydropyrazolo[1,5-a]pyrazin-4(5H)-one]", "IC50": 4.9}
    ]}
  ]
}
